# Results reported in patent US20250002527A1, “STEROID COMPOUND AND CONJUGATE THEREOF” (DUALITY BIOLOGICS (SUZHOU) CO., LTD., priority 2021, published 2025).
# “And” between values parts separate entries of the source, which are not always exact repeats. Equal entries are not always repeated.
# Molecular target: T1, GR (Homo sapiens, UniProt P04150)
# T1 construct: expressed in transfected cells; host or cells: HEK293
# T1 sequence (P04150 1-777): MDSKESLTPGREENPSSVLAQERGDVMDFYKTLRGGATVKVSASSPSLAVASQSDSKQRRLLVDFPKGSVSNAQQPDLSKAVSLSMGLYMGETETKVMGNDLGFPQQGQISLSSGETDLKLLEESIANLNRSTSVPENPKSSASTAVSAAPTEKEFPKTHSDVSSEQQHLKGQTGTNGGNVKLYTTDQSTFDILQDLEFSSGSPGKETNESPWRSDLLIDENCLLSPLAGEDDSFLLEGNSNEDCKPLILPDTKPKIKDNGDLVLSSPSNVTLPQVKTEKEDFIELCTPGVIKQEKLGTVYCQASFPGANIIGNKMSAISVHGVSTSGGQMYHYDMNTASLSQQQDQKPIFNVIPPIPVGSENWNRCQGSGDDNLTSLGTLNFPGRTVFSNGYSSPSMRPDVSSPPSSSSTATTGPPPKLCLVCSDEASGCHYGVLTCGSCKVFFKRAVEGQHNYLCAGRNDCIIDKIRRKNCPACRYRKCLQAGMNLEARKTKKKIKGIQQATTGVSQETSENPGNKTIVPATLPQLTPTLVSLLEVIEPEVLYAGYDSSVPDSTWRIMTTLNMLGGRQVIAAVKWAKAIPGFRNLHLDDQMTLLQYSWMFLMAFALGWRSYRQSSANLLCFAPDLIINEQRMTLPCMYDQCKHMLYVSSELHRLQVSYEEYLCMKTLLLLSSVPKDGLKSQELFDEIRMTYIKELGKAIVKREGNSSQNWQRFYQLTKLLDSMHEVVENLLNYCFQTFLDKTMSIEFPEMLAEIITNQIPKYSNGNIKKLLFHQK
# Assay: GR luciferase reporter gene elution experiment
# Type: cell-based
# Parameters: concentration or dose not given beside the values
# Details: then 24 hours
# Experimental: The compounds of the present application were evaluated for their ability to continue activation upon binding to GR.
# HEK293 cells were cultured in DMEM+10% FBS medium in a carbon dioxide incubator humidified at 37° C. at 5% carbon dioxide.
# • 1) HEK293 cells were trypsinized, and the HEK293 cell resuspension was adjusted to 200,000 cell/mL in medium (96 well plate: 100 μL/well). • 2) Transfection reagent mixtures were prepared according to the table below, mixed well and left at room temperature for 20 minutes.
# • 3) The prepared transfection mixtures were added to 10 mL of the cell density-adjusted resuspension, mixed well by turning the mixtures upside down, and seeded into a 96-well plate at a volume of 100 μL/well. • 4) The 96-well plate was incubated in a humidified incubator at 37° C. and 5% carbon dioxide for 24 hours.
# The test plate was detected using the Dual-Glo Luciferase Assay System kit from Promega, and the fluorescence signal of Firefly Luciferase and the fluorescence signal of Renilla Luciferase were read using Enspire, respectively.
# • 1) The final measurement value was a normalized value “F/R” obtained by dividing the Firefly Luciferase fluorescent signal by the Renilla Luciferase fluorescent signal. • 2) The data were copied and pasted into Excel, and the activation rate was obtained through an equation.
# [formula] • 3) The data were imported into MS Excel and subjected to curve fitting by using XLFit excel add-in version 5.4.0.8 to obtain an EC50 value.
# Y is the agonism and X is the concentration of the compound.
compound,measurement,setting,value
C[C@]12C=CC(=O)C=C1CC[C@@H]1[C@@H]2[C@@H](O)C[C@@]2(C)[C@H]1C[C@H]1O[C@@H](c3ccc(Cc4ccc(CO)cc4)cc3)O[C@]12C(=O)CO [Compound 4],Wash off time (Rate of activation %) 15 min,wash off after 15 min,127.6% and 129.6%
same,Wash off time (Rate of activation %) 30 min,wash off after 30 min,127.0% and 128.5%
same,Wash off time (Rate of activation %) 1 h,wash off after 1 h,164.6% and 106.6%
same,Wash off time (Rate of activation %) 2 h,wash off after 2 h,131.3% and 124.8%
same,Wash off time (Rate of activation %) 4 h,wash off after 4 h,139.9% and 125.3%
